Measured values taken from patent US5674878A, “Anellated dihydropyridines and the use thereof for the production of pharmaceutical preparations” (Boehringer Ingelheim KG, priority 1992, dated 1997).

Tested on: unselective cation channels (UCC)
Test: Thapsigargin (0.1 μM) stimulated Ca^2+ entry through unselective cation channels in fura-2-charged RBL-hm 1 cells
Assay type: cell-based, rat
Conditions: RBL-hm 1 cells, Thapsigargin (0.1 μM) stimulation, 10 μM test substance (Table 21)
Source text: As a measurement of the cell activation or as a measurement of the inhibition thereof by UCC blockers, the kinetics of the cytoplasmic calcium ion concentration in fura-2-charged cells is quantified fluorometrically using the method described by GRYNKIEWICZ et al. (1985).
Consequently the Ca^2+ -stores are rapidly depleted. As described by J. PUTNEY (Calcium, 11, 611-624, 1990) the depletion of these stores constitutes the physiological stimulation for opening up unselective cation channels in the cell membrane. The result of this is a massive influx of Na^+ and Ca^2+ into the cell. Because of these properties, Thapsigargin is suitable as an indirect stimulator for agonist- and IP3-independent opening up of the unselective cation channels.
The functional endothelin antagonism of the substances according to the invention is mediated through a blockade of the unselective cation channels. Consequently, detection of a functional Thapsigargin-antagonism on RBL-hm1 cells is also a suitable screening method for functional endothelin antagonists.
For screening purposes, fura-2-charged adhesive RBL-hm 1 cells are stimulated with 0.1 μM Thapsigargin in a Ca^2+ -free incubation medium. After 4 minutes, extracellular Ca^2+ is restored to a concentration of 1.5 mM and, using the fura-2-fluorescence, the excessive increase in the cytoplasmic Ca^2+ -concentration caused by a massive transmembranal Ca^2+ -entry through unselective cation channels is recorded.
This entry is to be inhibited solely by unselective cation channel blockers in a dosage-dependent manner. Neither conventional calcium antagonists nor specific blockers of agonists which stimulate the IP3 -turnover are able to inhibit the transmembranal Ca^2+ -entry triggered indirectly by Thapsigargin. The compounds of the present invention are distinguished by their inhibition of UCC.
The fluorometric calcium measurement in the cytoplasm of individual adhering RBL-hm1 cells is carried out analogously to the method described by KUDO and OGURA (1986) for neuronal cells. An AXIOVERT 35 fluorescence microscope made by ZEISS is used in conjunction with an imaging system made by HAMAMATSU, consisting of the ICMS-image processing system, residual light camera with control unit and image intensifier DVS 3000.
The kinetics of the cytoplasmic Ca^2+ -concentration is recorded continuously as a concentration/time curve after the cell activation stimulated by Thapsigargin (0.1 μM). The curves of two activated cell cultures are compared in the presence and absence of 10 μM test substance. The area under these curves (area under the curve=AUC) is integrated and recorded as a measurement of cell activation. The inhibitory potency of the UCC-blockers tested is determined using the following equation: [formula] %H=the percentage inhibition of the calcium entry through unselective cation channels which is stimulated and inhibited by 10 μM of test substance.
AUCinh =area under the curve recorded in the presence of the stimulant plus 10 μM inhibitory test substance.
AUCcontrol =area under the curve which is recorded only after the addition of the stimulant.
The percentage inhibition of UCC after Thapsigargin stimulation (0.1 μM Thapsigargin) in RBL-hm 1 cells is given. The uniform concentration of the test substances is 10^-5 mol).

Structure (SMILES) | % Inhibition
CCOc1ccccc1CCNC(=O)C(=C1NCCc2cc(OC)c(OC)cc21)c1ccccc1 (single isomer, unassigned) [K] | 76.31%
COc1cc2c(cc1OC)C(=C(C(=O)NCCc1c(OC)cccc1OC)c1ccccc1)NCC2 (single isomer, unassigned) [L] | 53.14%
COc1cc2c(cc1OC)C(C(C(=O)N(CCc1ccc(OC)c(OC)c1OC)CCc1ccc(OC)c(OC)c1OC)c1ccccc1)=NCC2 (centres unmarked) [38a (oxalate)] | 52.64%
COc1cc2c(cc1OC)C(C(C(=O)N1CCCC1)c1ccccc1)=NCC2 (centres unmarked) [41 (Structure I)] | 57.22%
COc1cc2c(cc1OC)C(C(C(=O)NCCc1ccc(OC)c(OC)c1OC)c1ccccc1)=NCC2 (centres unmarked) [B] | 72.35%
COc1cc2c(cc1OC)C(C(C(=O)NCC(c1ccccc1)c1ccccc1)c1ccccc1)=NCC2 (centres unmarked) [C] | 63.45%
COc1cc2c(cc1OC)C(C(C(=O)NCCc1cccc(C(F)(F)F)c1)c1ccccc1)=NCC2 (centres unmarked) [E] | 81.89%
COc1cc2c(cc1OC)C(C(C(=O)NCc1c(F)cccc1OC)c1ccccc1)=NCC2 (centres unmarked) [F] | 48.01%
COc1cc2c(cc1OC)C(=C(C(=O)NCCc1cccc(OC)c1OC)c1ccccc1)NCC2 [G] | 57.52%
COc1cc2c(cc1OC)C(=C(C(=O)NC(C)COc1ccccc1)c1ccccc1)NCC2 (centres unmarked) [H] | 57.06%
COc1cc2c(cc1OC)C(C(C(=O)NCCc1ccsc1)c1ccccc1)=NCC2 (centres unmarked) [O] | 63.32%

Same assay, conditions: Table 13; 10 μM test substance

Structure (SMILES) | % Inhib.
NS(=O)(=O)c1ccc(CCNC(=O)C(=C2NCCc3ccsc32)c2ccccc2)cc1 | 50.64%
COc1ccc(CCNC(=O)C(C2=NCCc3ccsc32)c2ccccc2)cc1 (centres unmarked) | 67.73%
COc1ccc(CCNC(=O)C(=C2NCCc3ccsc32)c2ccccc2)cc1 | 65.50%
CCOc1ccccc1CCNC(=O)C(C1=NCCc2ccsc21)c1ccccc1 (centres unmarked) | 24.03%
O=C(NCCc1cccc(C(F)(F)F)c1)C(C1=NCCc2ccsc21)c1ccccc1 (centres unmarked) | 43.49%
O=C(NCCc1ccc(Cl)cc1)C(C1=NCCc2ccsc21)c1ccccc1 (centres unmarked) | 15.26%
O=C(NCCc1ccc(Cl)cc1)C(=C1NCCc2ccsc21)c1ccccc1 | 26.54%
O=C(NCCc1ccsc1)C(C1=NCCc2ccsc21)c1ccccc1 (centres unmarked) | 0.0%
O=C(NCCc1ccsc1)C(=C1NCCc2ccsc21)c1ccccc1 | 67.75%

Same assay, conditions: Table 14; 10 μM test substance

Structure (SMILES) | % Inhib.
COc1cc2c(cc1OC)C(C(C(=O)NCCc1ccc(S(N)(=O)=O)cc1)c1ccccc1)=NCC2 (centres unmarked) | 79.17%
COc1cc2c(cc1OC)C(C(C(=O)NCCCc1ccccc1)c1ccccc1)=NCC2 (centres unmarked) | 73.55%
COc1cc2c(cc1OC)C(C(C(=O)NCCC1CCCN1C)c1ccccc1)=NCC2 (centres unmarked) | 60.82%
COc1cc2c(cc1OC)C(C(C(=O)NC(C)CCc1ccccc1)c1ccccc1)=NCC2 (centres unmarked) | 82.76%
COc1ccc(CNC(=O)C(C2=NCCc3cc(OC)c(OC)cc32)c2ccccc2)cc1OC (centres unmarked) | 50.90%
COc1ccc(CNC(=O)C(C2=NCCc3cc(OC)c(OC)cc32)c2ccccc2)c(OC)c1 (centres unmarked) | 56.20%
COc1cc2c(cc1OC)C(C(C(=O)N(CCCc1ccccc1)CCCc1ccccc1)c1ccccc1)=NCC2 (centres unmarked) | 22.39%
COc1cc2c(cc1OC)C(C(C(=O)NCCc1ccc(C)cc1)c1ccccc1)=NCC2 (centres unmarked) | 79.60%
COc1cc2c(cc1OC)C(C(C(=O)NCCc1ccc(Cl)c(OCc3ccccc3)c1)c1ccccc1)=NCC2 (centres unmarked) | 36.71%
COc1cc2c(cc1OC)C(C(C(=O)NCC1CCCCC1)c1ccccc1)=NCC2 (centres unmarked) | 30.87%

Same assay, conditions: Table 15; 10 μM test substance

Structure (SMILES) | % Inhib.
COc1cc2c(cc1OC)C(C(C(=O)NCCCc1ccc(C(C)(C)C)cc1)C1CCCCC1)=NCC2 (centres unmarked) | 84.43%

Same assay, conditions: Table 16; %inhibition, 10 μM test substance

Structure (SMILES) | %
COc1ccc2c(c1)CCN=C2C(C(=O)NCCc1cccc(C(F)(F)F)c1)c1ccccc1 (centres unmarked) | 30.41%
O=C(NCCc1cccc(C(F)(F)F)c1)C(C1=NCCc2cc(OCc3ccccc3)ccc21)c1ccccc1 (centres unmarked) | 14.65%
Cc1cc2c(cc1OCc1ccccc1)CCN=C2C(C(=O)NCCc1cccc(C(F)(F)F)c1)c1ccccc1 (centres unmarked) | 49.03%
COc1cc2c(cc1OCc1ccccc1)CCN=C2C(C(=O)NCCc1cccc(C(F)(F)F)c1)c1ccccc1 (centres unmarked) | 31.8%
COc1cc2c(cc1OCc1ccccc1)C(C(C(=O)NCCc1cccc(C(F)(F)F)c1)c1ccccc1)=NCC2 (centres unmarked) | 22.9%
COc1cc2c(cc1C)C(C(C(=O)N(Cc1ccccc1)Cc1ccccc1)c1ccccc1)=NCC2 (centres unmarked) | 58.3%

Same assay, conditions: Table 17; 10 μM test substance

Structure (SMILES) | percent inhibition of Ca2+ entry
COc1cc(N=[N+]=[N-])c(I)cc1CCNC(=O)C(C1=NCCc2cc(OC)c(OC)cc21)c1ccccc1 (centres unmarked) | 36.95%
COc1ccccc1CCNC(=O)C(C1=NCCc2cc(OC)c(OC)cc21)c1ccccc1 (centres unmarked) | 69.7%
COc1ccc(CCN(CC(C)C)C(=O)C(C2=NCCc3cc(OC)c(OC)cc32)c2ccccc2)cc1OC (centres unmarked) | 12.82%
COc1cc2c(cc1OC)C(C(C(=O)NCCOc1cccc3ccccc13)c1ccccc1)=NCC2 (centres unmarked) | 59%
COc1cc2c(cc1OC)C(C(C(=O)NC(C)COc1c(C)cccc1C)c1ccccc1)=NCC2 (centres unmarked) | 72.18%
COc1cccc(OCCN2CCN(C(=O)C(C3=NCCc4cc(OC)c(OC)cc43)c3ccccc3)CC2)c1 (centres unmarked) | 41.06%
COc1cc2c(cc1OC)C(C(C(=O)N1CCN(c3nc(N)c4cc(OC)c(OC)cc4n3)CC1)c1ccccc1)=NCC2 (centres unmarked) | 7.77%
COc1cccc(OCCNC(=O)C(C2=NCCc3cc(OC)c(OC)cc32)c2ccccc2)c1 (centres unmarked) | 45.26%
COc1ccc2c(c1)CCN(C(=O)C(C1=NCCc3cc(OC)c(OC)cc31)c1ccccc1)C2 (centres unmarked) | 33.06%
COc1cc2c(cc1OC)C(C(C(=O)NC(C)(C)C)c1ccccc1)=NCC2 (centres unmarked) | 81.60%
COc1cc2c(cc1OC)C(C(C(=O)NCC(C)(C)C)c1ccccc1)=NCC2 (centres unmarked) | 81.51%
COc1cc2c(cc1OC)C(C(C(=O)NCC13CC4CC(CC(C4)C1)C3)c1ccccc1)=NCC2 (centres unmarked) [HNCH2-1-Adam.] | 65.1%

Same assay, conditions: Table 18; 10 μM test substance

Structure (SMILES) | percent inhibition of Ca2+ entry
COc1cc2c(cc1OC)C(C(C(=O)N(CCc1ccc(OC)c(OC)c1OC)CCc1ccc(OC)c(OC)c1OC)c1ccccc1OC)=NCC2 (centres unmarked) | 41.8%
COc1cccc(C(C(=O)N(CCc2ccc(OC)c(OC)c2OC)CCc2ccc(OC)c(OC)c2OC)C2=NCCc3cc(OC)c(OC)cc32)c1 (centres unmarked) | 24.3%
COc1ccc(C(C(=O)N(CCc2ccc(OC)c(OC)c2OC)CCc2ccc(OC)c(OC)c2OC)C2=NCCc3cc(OC)c(OC)cc32)cc1 (centres unmarked) | 73.7%
COc1ccc(C(C(=O)N(CCc2ccc(OC)c(OC)c2OC)CCc2ccc(OC)c(OC)c2OC)C2=NCCc3cc(OC)c(OC)cc32)cc1OC (centres unmarked) | 53.1%
COc1cc2c(cc1OC)C(C(C(=O)N(CCc1ccc(OC)c(OC)c1OC)CCc1ccc(OC)c(OC)c1OC)c1ccccc1C)=NCC2 (centres unmarked) | 68.22%
COc1cc2c(cc1OC)C(C(C(=O)N(CCc1ccc(OC)c(OC)c1OC)CCc1ccc(OC)c(OC)c1OC)c1ccc(Cl)cc1Cl)=NCC2 (centres unmarked) | 30.79%
COc1cc2c(cc1OC)C(C(C(=O)N(CCc1ccc(OC)c(OC)c1OC)CCc1ccc(OC)c(OC)c1OC)c1ccc(F)cc1)=NCC2 (centres unmarked) | 54.30%
COc1cc2c(cc1OC)C(C(C(=O)N(CCc1ccc(OC)c(OC)c1OC)CCc1ccc(OC)c(OC)c1OC)c1ccc(N=[N+]=[N-])cc1)=NCC2 (centres unmarked) | 61.3%
COc1cc2c(cc1OC)C(C(C(=O)N(CCc1ccc(OC)c(OC)c1OC)CCc1ccc(OC)c(OC)c1OC)c1ccc(N=[N+]=[N-])c(I)c1)=NCC2 (centres unmarked) | 5.81%
COc1cc2c(cc1OC)C(C(CC1CCC1)C(=O)N(CCc1ccc(OC)c(OC)c1OC)CCc1ccc(OC)c(OC)c1OC)=NCC2 (centres unmarked) | 56.0%

Same assay, conditions: Table 19; 10 μM test substance

Structure (SMILES) | percent inhibition of Ca2+ entry
COc1ccccc1CCNC(=O)C(C1=NCCc2cc(OC)c(OC)cc21)c1ccc(N=[N+]=[N-])cc1 (centres unmarked) | 50.58%

Same assay, conditions: Table 20; 10 μM test substance

Structure (SMILES) | percent inhibition of Ca2+ entry
Cc1cc2c(cc1OCc1ccccc1)CCN=C2C(C(=O)NCCc1cccc(C(F)(F)F)c1)c1ccccc1 (centres unmarked) | 49.03%
COc1cc2c(cc1OCc1ccccc1)CCN=C2C(C(=O)NCCC(C)(C)C)c1ccccc1 (centres unmarked) [NHCH2 CH2C(CH3)3] | 61.85%
